These results are taken from US7541044B2, “Administration of 5T4 antigen and immune response of cells expressing 5T4 and CEA antigens” (priority 2004, dated 2009).

Series [1] concerns colon carcinoma derived metastatic rat tumour line. The note with it: SC tumour line transfected with cytosine deaminase gene, then 5-fluorocytosine; cited from earlier work.
Series [2] is described as follows: Adverse events, NCI-common toxicity criteria (BC1). It counts as in vivo, human. The note with it: attributed to oral cyclophosphamide. How it is done:
Further assessment was performed in out-patients on day 7. Biopsy of the injected tumour nodules was performed under local anaesthetic. The biopsies were snap-frozen in liquid nitrogen, then sectioned and fixed for histological assessment. Treatment with cyclophosphamide 100 mg/m^2 p.o. was commenced for 14 out of every 28 days. Patients were reviewed weekly for the first 8 weeks and end of study assessment, including tumour size and appropriate re-staging CT scans performed at 12 weeks. Response was assessed according to WHO criteria. Patients with stable or responding disease continued with cyclophosphamide at the discretion of the investigator. Toxicity was graded according to NCI-common toxicity criteria (version 2).
The main toxicity observed in the study was attributed to oral cyclophosphamide with the most frequent non-haematological events described as nausea (9 patients), alopecia (6 patients), headache (5 patients), anorexia (4 patients) and fatigue (4 patients). All of these events were grade I or II by NCI-CTC with the exception of one patient with grade III fatigue. Two patients had clinically significant haematological toxicity with grade III leucopenia and grade II neutropenia. No patients were admitted with neutropenic fever. […] During the study 3 patients with breast cancer experienced serious adverse events (patient 103 hypotension, dysarthria and left sided weakness, patient 104 trismus and tongue oedema and patient 108 deep vein thrombosis, hypotension and dyspnoea). None of the serious adverse events were considered related to MetXia-P450.

Series [3] has as its system B16 melanoma lung metastases. The following applies: tk gene then ganciclovir; immunocompetent but not immunodeficient mice; cited from earlier work.

For `Nc1nc(=O)[nH]cc1F` [5-fluorocytosine], the “regression in the volume of established liver tumours” value in series [1] is reported as 70%.

Consider `O=P1(N(CCCl)CCCl)NCCCO1` (stereo not drawn) [cyclophosphamide], for which, in series [2], the “clinically significant haematological toxicity (grade III leucopenia and grade II neutropenia)” value was “Two”; the fatigue is reported as 4 patients; the “grade III fatigue” value is “one”. In series [2] (grade I or II), this compound registered an alopecia of 6 patients, an anorexia of 4 patients, a headache of 5 patients and a nausea of 9 patients.

Consider `Nc1nc(O)c2ncn(COC(CO)CO)c2n1` [ganciclovir], for which the “B16 melanoma lung metastases” value in series [3] is recorded as “marked reduction”.
